Legend:
[1] = tested on: Cx43 S368 phosphorylation; experiment: Western blot of Cx43-pS368 in peptide-infused LV; design: species or system mouse; details: peptide infused 20 minutes; relative to vehicle control
Experimental: Protein samples from all related experiments (PKC and EDC cross-linking assays and Westerns on heart lysates) were processed in lithium dodecyl sulfate sample loading buffer (Bio-Rad, 1610737 CA), heated at 95° C. for 5 minutes. Samples from PKC and cross-linking assays were loaded on 18% Tris-Glycine Stain-Free gels (Bio-Rad, 5678073 CA); samples from heart lysates were loaded on 10% Tris-Glycine Stain-Free el (Bio-Rad: 5678033 CA), resolved by SDS-PAGE, transferred to PVDF FL membrane on a Turbo Transfer System (Bio-Rad, 1704155 CA). alpha CT1 eluted from cross-linking reactions was detected on blots against biotin with HRP-NeutrAvidin (ThermoFisher, 31001, MA). Signals were detected by HR-based chemiluminescence (ThermoFisher, 34095, MA) and exposed to ECL Chemidoc (Bio-Rad, 1708280 CA) and digitized using Image Lab software (Bio-Rad, 1709692 CA). Detailed methods have also been previously described^11, 13, 14 Surface Plasmon Resonance
Male, 3-month-old, body weight 25±5 g C57BL/6 mice were used for this study and obtained from Charles River. Animals were randomly assigned to experimental groups and Left ventricular (LV) function was measured and myocardial ischemia-reperfusion injury (I/R) was induced as previously described^23. Briefly, 15 minutes after the injection of heparin at a dose of 200U/10 g body weight, the mouse was anesthetized by inhalation of isoflurane vapor and subjected to cervical dislocation upon the cessation of respiration. Thoracotomy was immediately performed and the heart excised. The heart was arrested in ice-cold Krebs-Henseleit (KH) buffer (in mM: 25 NaHCO3, 0.5 EDTA, 5.3 KCl, 1.2 MgSO4, 0.5 pyruvate, 118 NaCl, 10 glucose, 2.5 CaCl2). The aorta was isolated and cannulated in a Langendorff perfusion system. The heart was then perfused at a constant pressure of 75 mmHg with KH buffer, which was continually bubbled with 5% CO2/95% O2 at 37° C. Effluent from the Thebesian veins was drained by a thin polyethylene tube (PE-10) pierced through the apex of the LV. […] After a 30-minute stabilization period, a balloon volume (BV) generating an LV end-diastolic-pressure (EDP) of 0 mmHg, was determined for the heart. The BV was then increased stepwise up through 1, 2, 5, 8, 10, 12, 15, 18, 20, 25, 30 μl increments of 1-5 μl and contractile performance were recorded for 10 seconds at each step. […] Data was recorded and analyzed using PowerLab 4/35 (ADInstruments, PL3504, CO) and LabChart V7 (ADInstruments, CO). […] Baseline function (determined by EDP at about 8-10 mmHg) was recorded for 5 minutes. […] BV was retaken through the stepwise sequence of 1-5 μl increments between 1 and 30 μl, with contractile performance again being recorded for 10 seconds at each step. Cardiac LV function was recorded throughout the procedure. […]

Cx43 CT-KK/QQ = biological target: T1, Cx43 CT-KK/QQ (Rattus norvegicus, UniProt P08050, K345Q/K346Q); experiment: Surface plasmon resonance, Cx43 CT-KK/QQ analyte; format: binding; details: biotin-peptide immobilized on streptavidin chip
T1 construct: pGEX-6-P2 Cx43 CT amino acids 255-382; GST (N, cleaved yes); made in house; host or cells: E. coli BL21
Excerpt: Peptides were synthesized and quality checked for fidelity and purity using High Performance Liquid Chromatography and mass spectrometry (LifeTein, Hillsborough, NJ). Biotinylated peptides were designed for surface plasmon resonance experiments. Glutathione-S-Transferase (GST) fusion protein constructs composed of the Cx43-CT (pGEX-6-P2 Cx43 CT amino acids 255-382), ZO-1 PDZ1, PDZ2 and PDZ3 were isolated and purified from isopropyl-b-D-thiogalactoside (IPTG)-induced BL21 bacteria using standard procedures, described in references 13, 14, 20. The pGEX6p2-Cx43 CT plasmid was obtained from Prof. Paul L. Sorgen (University of Nebraska Medical Center, USA). Cx43 CT mutant (Cx43 CT-KK/QQ; amino acids Lys345 Lys346 to Gln 345 Gln 346) was developed by site-directed mutagenesis of the pGEX6p2-Cx43 CT plasmid (Agilent technologies, QuikChange II Site-Directed Mutagenesis Kit). The mutation was verified by sequencing. For surface plasmon resonance experiments, the GST was removed using PreScission protease, yielding Cx43 CT protein (wild-type or mutant).
Efficacy of the interaction of each alpha CT1 variant with Cx43 CT or Cx43 CT-KK/QQ was tested using surface plasmon resonance (SPR) as described previously 20. In brief, SPR experiments were performed using a Biacore T200 (GE Healthcare). Equal amounts (response units/RU) of biotin-alpha CT1 variants were immobilized on each flow cell of a streptavidin-coated sensor chip (Biacore Inc) using immobilization buffer (in mM: 10 HEPES, 1 EDTA, 100 NaCl, 0.005% Tween-20) at pH 7.4. Measurements with wild-type (wt) Cx43 CT and mutant Cx43 CT-KK/QQ analytes were done in running buffer (in mM: 10 HEPES, 100 NaCl, pH 7.4) at a flow rate of 30 μl/min. Binding of analytes were verified at different concentrations, in random order (injection volume 120 μl). Interacting proteins were then unbound by injection of […] regeneration buffer (50 mM NaOH and 1 M NaCl) at a flow rate of 10 μl/min. Background levels were obtained from a reference cell containing a biotin-control peptide in which the reversed sequence of the last 9 amino acids of Cx43 was fused to biotin-antennapedia. The RU values obtained with biotin-control peptide were subtracted from the RU values obtained with the different biotin-alphaCT1 variants (wild-type or mutant) to generate the different response curves.

T1 sequence (P08050 255-382 K345Q/K346Q): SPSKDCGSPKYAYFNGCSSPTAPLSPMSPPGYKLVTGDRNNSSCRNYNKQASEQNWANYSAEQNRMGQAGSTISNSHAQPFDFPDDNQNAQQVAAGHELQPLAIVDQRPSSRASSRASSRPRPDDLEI

Sequence | Cx43 pS368 in LV samples [1] | SPR binding to Cx43 CT-KK/QQ (Cx43 CT-KK/QQ)
RQPKIWFPNRRKPWKK RPRPAALAI (RQPKIWFPNRRKPWKKRPRPAALAI) [M1 AALAI] | no propensity to upregulate S368 phosphorylation | unable mediate interactions
RQPKIWFPNRRKPWKKRPRPDDLAI [M3 DDLAI] | no propensity to upregulate S368 phosphorylation | unable mediate interactions
RQPKIWFPNRRKPWKKRPRPDDLE [alpha CT1-I] | significant increases in phosphorylation | 
RQPKIWFPNRRKPWKKRPRPDDLEI [alpha CT1] | significant increases in phosphorylation | unable mediate interactions

— patent US20250221936A1, “ENGINEERED HEMICHANNELS, ENGINEERED VESICLES, AND USES THEREOF” (VIRGINIA TECH INTELLECTUAL PROPERTIES, INC., priority 2018, published 2025)
